Test results from patent publication US20170283440A1, “CARM1 INHIBITORS AND USES THEREOF” (Epizyme, Inc., priority 2014, published 2017).

test system: asymmetric di-methyl PABP1 in RKO cells; assay: RKO methylation assay (In Cell Western for asymmetric di-methyl PABP1); type: cell-based; conditions: 48 hours incubation, read-out: Cellular IC50
From the text: RKO adherent cells were purchased from ATCC (American Type Culture Collection), Manassas, Va., USA. DMEM/Glutamax medium, penicillin-streptomycin, heat inactivated fetal bovine serum, 0.05% trypsin and D-PBS were purchased from Life Technologies, Grand Island, N.Y., USA. Odyssey blocking buffer, 800CW goat anti-rabbit IgG (H+L) antibody, and Licor Odyssey infrared scanner were purchased from Licor Biosciences, Lincoln, Nebr., USA. Asymmetric di-methyl PABP1 antibody was purchased from Cell Signaling Technology, Danvers, Mass., USA. Methanol was purchased from VWR, Franklin, Mass., USA. 10% Tween 20 was purchased from KPL, Inc., Gaithersburg, Md., USA. Paraformaldehyde (PFA) was purchased from EM Sciences. DRAQ5 was purchased from Biostatus Limited, Leicestershire, UK.
RKO adherent cells were maintained in growth medium (DMEM/Glutamax medium supplemented with 10% v/v heat inactivated fetal bovine serum and 100 units/mL penicillin-streptomycin) and cultured at 37° C. under 5% CO2.
Compound (100 nL) from a 96-well source plate was added directly to 384 well cell plate. Plates were incubated at 37° C., 5% CO2 for 48 hours. After two days of incubation, plates were brought to room temperature outside of the incubator for ten minutes and blotted on paper towels to remove cell media. Cells were fixed for 20 minutes at room temperature by adding 50 ul of 8% PFA followed by aspiration of supernatant with the Biotek EL406 plate washer. Cells were then permeabilized by addition of 50 μL of ice cold 100% methanol directly to each well and incubated for 30 min at room temperature. After 30 min, plates were transferred to a Biotek EL406 plate washer and washed 2 times with 100 μL per well of wash buffer (IX PBS). Next 60 μL per well of Odyssey blocking buffer (Odyssey Buffer with 0.1% Tween 20 (v/v)) were added to each plate and incubated 1 hour at room temperature. Blocking buffer was removed and 20 μL per well of primary antibody was added (asymmetric-methyl PABP1) diluted 1:400 in Odyssey buffer with 0.1% Tween 20 (v/v)) and plates were incubated overnight (16 hours) at 4° C. Plates were washed 5 times with 100 μL per well of wash buffer. Next 20 μL per well of secondary antibody was added (1:800 800CW goat anti-rabbit IgG (H+L) antibody, 1:2000 DRAQ5 in Odyssey buffer with 0.1% Tween 20 (v/v)) and incubated for 1 hour at room temperature. The plates were washed 5 times with 100 μL per well wash buffer then 2 times with 100 μL per well of water. Plates were allowed to dry at room temperature then imaged on the Licor Odyssey machine which measures integrated intensity at 700 nm and 800 nm wavelengths. Both 700 and 800 channels were scanned.
First, the ratio for each well was determined by:
Each plate included fourteen control wells of DMSO only treatment (minimum inhibition) as well as fourteen control wells for maximum inhibition treated with 20 μM of a reference compound. The average of the ratio values for each control type was calculated and used to determine the percent […] for each test well in the plate. Reference compound was serially diluted three-fold in DMSO for a total of nine test concentrations, beginning at 20 μM.
Percent inhibition was determined and IC50 curves were generated using triplicate wells per concentration of compound.

IC50 | SMILES
5000 to 10000 nM | CNCC(O)COc1cccc(-c2nc(NC3CCOCC3)c3cnn(C(C)(C)C)c3n2)c1 (centres unmarked) [Example 3-5]
> 20000 nM | CC(C)n1ncc2c(N[C@@H]3CO[C@H]4OCC[C@H]43)cc(-c3cccc(OCC(O)CN)c3)nc21 (some centres unmarked) [Example 6-8]

same assay, conditions: Homo sapiens, 48 hours incubation, read-out: Cellular IC50

SMILES | IC50
Cc1cc(CNc2nc(-c3cccc(OCC(O)CN)c3)nc3c2cnn3C2CC2)no1 (centres unmarked) [Example 15-5] | > 20000 nM
CNCC(O)COc1cccc(-c2nc(NC3CCOCC3)c3cnn(C4CC4)c3n2)c1 (centres unmarked) [Example 19-5] | > 20000 nM
Cc1cccn2cc(CNc3nc(-c4cccc(OCC(O)CN)c4)nc4c3cnn4C3CC3)nc12 (centres unmarked) [Example 41-5] | > 20000 nM
CNCC(O)COc1cccc(-c2nc(NCc3cccc4ccnn34)c3cnn(C4CC4)c3n2)c1 (centres unmarked) [Example 14-9] | > 20000 nM
CNCC(O)COc1cc(OC)cc(-c2cc(N(C)CCOC)n3ncc(C(C)C)c3n2)c1 (centres unmarked) [Example 25-6] | > 20000 nM
CC(C)n1ncc2c(NC3CCOC3)nc(-c3cccc(OCC(O)CN)c3)nc21 (centres unmarked) [Example 7-5] | > 20000 nM
CNCC(O)COc1cc(NC)cc(-c2cc(N(C)C3CCOCC3)c3cnn(C(C)C)c3n2)c1 (centres unmarked) [Example 19-4] | 5000 to 10000 nM

More lines, now with the values ahead:

IC50 | SMILES
> 20000 nM | CNCC(O)COc1cc(N)cc(-c2cc(NC3CCOCC3)c3cnn(C(C)C)c3n2)c1 (centres unmarked) [Example 7-4]
> 20000 nM | CNCC(O)COc1cc(-c2cc(NC3CCOCC3)c3cnn(C(C)C)c3n2)cc(C2CC2)c1 (centres unmarked) [Example 16-4]
> 20000 nM | CNCC(O)COc1cc(Cl)cc(-c2cc(NC3CCOCC3)n3ncc(C(C)C)c3n2)c1 (centres unmarked) [Example 39-6]
5000 to 10000 nM | CNCC(O)COc1cccc(-c2nc(NC3CCOCC3)c3cnn(C(C)(C)C)c3n2)c1 (centres unmarked) [Example 30-5]
> 20000 nM | CNCC(O)COc1cc(Cl)cc(-c2cc(N(C)C3CCOCC3)n3ncc(C4CC4)c3n2)c1 (centres unmarked) [Example 1-9]
> 20000 nM | CNCC(O)COc1cccc(-c2cc(N(C)C3CCOCC3)nc(N3CCOCC3)n2)c1 (centres unmarked) [Example 4-9]
> 20000 nM | CNCC(O)COc1cc(OC)cc(-c2cc(N(C)[C@@H]3CCOC3)n3ncc(C(C)C)c3n2)c1 (some centres unmarked) [Example 35-6]

target: T1, Human CARM1 (PRMT4) (Homo sapiens, UniProt Q86X55); assay: CARM1 enzyme assay on peptide substrate (3H-SAM Flashplate); type: biochemical; conditions: CARM1 0.25 nM, 3H-SAM 30 nM, peptide 250 nM; read-out: Biochem IC50
T1 construct: Flag-CARM1-His was eluted with 200 ug/ml FLAG peptide in buffer A; made in house; host or cells: HEK 293F cells infected with recombinant baculovirus (pFastBacMam)
T1 sequence (Q86X55 other isoform, or with tags, fused parts or gaps): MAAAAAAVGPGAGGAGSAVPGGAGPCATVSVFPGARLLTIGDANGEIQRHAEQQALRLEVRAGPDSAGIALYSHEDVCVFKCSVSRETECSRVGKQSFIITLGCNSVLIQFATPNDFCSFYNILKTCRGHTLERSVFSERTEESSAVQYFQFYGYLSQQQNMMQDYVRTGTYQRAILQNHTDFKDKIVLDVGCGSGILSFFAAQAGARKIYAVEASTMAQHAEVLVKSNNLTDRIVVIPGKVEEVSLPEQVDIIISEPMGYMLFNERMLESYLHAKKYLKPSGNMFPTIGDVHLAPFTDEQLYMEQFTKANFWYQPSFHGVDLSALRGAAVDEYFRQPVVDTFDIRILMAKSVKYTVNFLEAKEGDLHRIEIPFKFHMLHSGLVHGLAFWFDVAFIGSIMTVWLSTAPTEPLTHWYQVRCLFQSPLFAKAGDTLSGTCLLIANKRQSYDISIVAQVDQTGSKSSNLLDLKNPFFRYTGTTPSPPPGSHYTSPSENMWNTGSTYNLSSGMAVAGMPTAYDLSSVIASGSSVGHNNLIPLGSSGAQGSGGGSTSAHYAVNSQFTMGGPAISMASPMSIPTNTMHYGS
From the text: S-adenosylmethionine (SAM), S-adenosylhomocysteine (SAH), bicine, Tween20, dimethylsulfoxide (DMSO), bovine skin gelatin (BSG), sodium butyrate and Tris(2-carboxyethyl)phosphine hydrochloride solution (TCEP) were purchased from Sigma-Aldrich at the highest level of purity possible. ^3H-SAM was purchase from American Radiolabeled Chemicals with a specific activity of 80 Ci/mmol. 384-well streptavidin Flashplates were purchased from PerkinElmer.
Peptide representative of human histone H3 residues 16-30 was synthesized with an N-terminal linker-affinity tag motif and a C-terminal amide cap by 21st Century Biochemicals. The peptide was purified by high-performance liquid chromatography (HPLC) to greater than 95% purity and confirmed by liquid chromatography mass spectrometry (LC-MS). The sequence was Biot-Ahx-[…]-amide and contained a monomethylated arginine at position 26 (SEQ ID NO.:1).
Human CARM1 (PRMT4) (NM_199141.1) transcript clone was amplified from an HEK 293 cDNA library, incorporating a flanking 5′ sequence encoding a FLAG tag ([…]) (SEQ ID NO.:2) fused directly to Ala 2 of CARM1 and 3′ sequence encoding a hexa His sequence ([…]) (SEQ ID NO.:3) fused directly to Ser 608. The gene sequence encoding isoform1 containing a deletion of amino acids 539-561 was amplified subsequently and subcloned into pFastBacMam (Viva Biotech).
Recombinant baculovirus were generated according to Bac-to-Bac kit instructions (Life Technologies). Protein over-expression was accomplished by infecting exponentially growing HEK 293F cell culture at 1.3×10^6 cell/ml with virus (MOI=10) in the presence of 8 mM sodium butyrate. Infections were carried out at 37° C. for 48 hours, harvested by centrifugation, and stored at −80° C. for purification.
Column was washed with 500 mM NaCl in buffer A and Flag-CARM1-His was eluted with 200 ug/ml FLAG peptide in buffer A. Pooled fractions were dialyzed in 20 mM Tris, 150 mM NaCl, 5% glycerol and 1 mM DTT, pH 7.8. The purity of recovered protein was 94.
The assays were all performed in a buffer consisting of 20 mM Bicine (pH=7.6), 1 mM TCEP, 0.005% BSG, and 0.002% Tween 20, prepared on the day of use. Compounds in 100% DMSO (1 ul) were spotted into a polypropylene 384-well V-bottom plates (Greiner) using a Platemate Plus outfitted with a 384-channel head (Thermo Scientific). DMSO (1 ul) was added to Columns 11, 12, 23, 24, rows A-H for the maximum signal control and 1 ul of SAH, a known product and inhibitor of CARM1, was added to columns 11, 12, 23, 24, rows I—P for the minimum signal control. A cocktail (40 ul) containing the CARM1 enzyme was added by Multidrop Combi (Thermo-Fisher). The compounds were allowed to incubate with CARM1 for 30 min at room temperature, then a cocktail (10 ul) containing ^3H-SAM and peptide was added to initiate the reaction (final volume=51 ul). The final concentrations of the components were as follows: CARM1 was 0.25 nM, ^3H-SAM was 30 nM, peptide was 250 nM, SAH in the minimum signal control wells was 1 mM, and the DMSO concentration was 2%. The assays were stopped by the addition of non-radiolabeled SAM (10 ul) to a final concentration of 300 uM, which dilutes the ^3H-SAM to a level where its incorporation into the peptide substrate is no longer detectable. 50 ul of the reaction in the 384-well polypropylene plate was then transferred to a 384-well Flashplate and the biotinylated peptides were allowed to bind to the streptavidin surface for at least 1 hour before being washed once with 0.1% Tween20 in a Biotek ELx405 plate washer. The plates were then read in a PerkinElmer TopCount plate reader to measure the quantity of ^3H-labeled peptide bound to the Flashplate surface, measured as disintegrations per minute (dpm) or alternatively, referred to as counts per minute (cpm).
where dpm=disintegrations per minute, cmpd=signal in assay well, and min and max are the respective minimum and maximum signal controls. […]

SMILES | IC50
Cc1cc(CNc2nc(-c3cccc(OCC(O)CN)c3)nc3c2cnn3C2CC2)no1 (centres unmarked) [Example 15-5] | 100 to 1000 nM
CNCC(O)COc1cccc(-c2nc(NC3CCOCC3)c3cnn(C4CC4)c3n2)c1 (centres unmarked) [Example 19-5] | 100 to 1000 nM
Cc1cccn2cc(CNc3nc(-c4cccc(OCC(O)CN)c4)nc4c3cnn4C3CC3)nc12 (centres unmarked) [Example 41-5] | 100 to 1000 nM
CNCC(O)COc1cccc(-c2nc(NCc3cccc4ccnn34)c3cnn(C4CC4)c3n2)c1 (centres unmarked) [Example 14-9] | 100 to 1000 nM
CNCC(O)COc1cc(OC)cc(-c2cc(N(C)CCOC)n3ncc(C(C)C)c3n2)c1 (centres unmarked) [Example 25-6] | < 100 nM
CC(C)n1ncc2c(NC3CCOC3)nc(-c3cccc(OCC(O)CN)c3)nc21 (centres unmarked) [Example 7-5] | < 100 nM
CNCC(O)COc1cc(NC)cc(-c2cc(N(C)C3CCOCC3)c3cnn(C(C)C)c3n2)c1 (centres unmarked) [Example 19-4] | < 100 nM

Second part, the molecule after the results:

IC50 | SMILES
< 100 nM | CNCC(O)COc1cc(N)cc(-c2cc(NC3CCOCC3)c3cnn(C(C)C)c3n2)c1 (centres unmarked) [Example 7-4]
< 100 nM | CNCC(O)COc1cc(-c2cc(NC3CCOCC3)c3cnn(C(C)C)c3n2)cc(C2CC2)c1 (centres unmarked) [Example 16-4]
< 100 nM | CNCC(O)COc1cc(Cl)cc(-c2cc(NC3CCOCC3)n3ncc(C(C)C)c3n2)c1 (centres unmarked) [Example 39-6]
< 100 nM | CNCC(O)COc1cccc(-c2nc(NC3CCOCC3)c3cnn(C(C)(C)C)c3n2)c1 (centres unmarked) [Example 30-5]
< 100 nM | CNCC(O)COc1cc(Cl)cc(-c2cc(N(C)C3CCOCC3)n3ncc(C4CC4)c3n2)c1 (centres unmarked) [Example 1-9]
< 100 nM | CNCC(O)COc1cccc(-c2cc(N(C)C3CCOCC3)nc(N3CCOCC3)n2)c1 (centres unmarked) [Example 4-9]
< 100 nM | CNCC(O)COc1cc(OC)cc(-c2cc(N(C)[C@@H]3CCOC3)n3ncc(C(C)C)c3n2)c1 (some centres unmarked) [Example 35-6]
< 100 nM | CNCC(O)COc1cccc(-c2nc(NC3CCOCC3)c3cnn(C(C)(C)C)c3n2)c1 (centres unmarked) [Example 3-5]
< 100 nM | CC(C)n1ncc2c(N[C@@H]3CO[C@H]4OCC[C@H]43)cc(-c3cccc(OCC(O)CN)c3)nc21 (some centres unmarked) [Example 6-8]
